Assay results as given in patent publication US20110207694A1, “MAMMALIAN HYPOTHALAMIC NUTRIENT MODULATION OF GLUCOSE METABOLISM” (priority 2005, published 2011).
Entries after “also recorded” stand apart in the source; their conditions may differ.

Legend:
[1] = system: conscious rats; test: Circulating lactate infusion with central LDH inhibitor or KATP blocker: glucose kinetics during pancreatic clamps; details: pancreatic clamps
[2] = system: rats; test: Food intake after central (ICV) glucose or lactate; type: in vivo, rat
[3] = system: conscious rats; test: Intravenous lactate infusion with or without MBH oxamate: plasma TG and hepatic TG-VLDL production; type: in vivo, rat
Method: (§1) Infusion protocols. The in vivo infusion experiments lasted a total of 360 min, and the experiments were carried out in rats that had their food removed ˜5 h before the experiments. Thus, at the time of the experiment, the rats are in post-absorptive state since their stomach should be completely emptied by 5 h fasting. […] This ICV glucose protocol physiologically elevate hypothalamic glucose concentration by ˜70% as previously described (Lam et al., 2005b) and is similar to that induced by a doubling of the circulating glucose levels (Lam et al., 2005b). During the ICV infusions, we monitored the plasma metabolite levels under pre-infused (0 min), basal (180-240 min) and pancreatic clamp (300-360 min) conditions. […] A basal insulin-pancreatic clamp was performed in the final 2 h (240-360 min) of the study as previously described (Lam et al., 2005b). In brief, a continuous infusion of insulin (1 mU/kg.min) and somatostatin (3 μg/kg.min) was administered, and a variable infusion of a 25% glucose solution was started and periodically adjusted to clamp and maintain the plasma glucose concentration at ˜8 mM. […] To examine the time-dependent effects of ICY glucose on plasma triglycerides, ICY (5 μl/h) 2 mM D-glucose or mannitol was administrated for 210 min and plasma triglyceride levels were monitored at 0, 20, 60, 120, 180, 210 min. […] Plasma triglycerides were monitored under basal, pancreatic clamp and tyloxapol-treated conditions. At the end of the infusion experiments, rats were anesthetized and tissue samples were freeze-clamped in situ with aluminum tongs pre-cooled in liquid nitrogen. All tissue samples were stored at −80° C. for subsequent analysis.
VLDL are decreased in the hours following an acute bout of exercise. […] To investigate the mechanism by which lactate lowers plasma TG levels, the rate of production of hepatic TG-enriched VLDL was measured.

[4] = system: male Sprague-Dawley rats; test: ICV infusion: plasma triglycerides and metabolites under basal and pancreatic clamp conditions; type: in vivo, rat
Text: Animal preparation. We studied 10-week-old male Sprague-Dawley rats. Rats underwent stereotaxic surgery to indwell single catheters in the third cerebral ventricle {intracerebroventricular (ICV)(Obici et al., 2001) or bilateral catheters into the mediobasal hypothalamus (Lam et al., 2005c). One week later, we placed indwelling catheters in the internal jugular vein and carotid artery for sampling and infusion during the in vivo experiments (Obici et al., 2001). Recovery from surgery was monitored by measuring daily food intake and weight gain for 4-5 days after surgery.
as §1
Biochemical analyses. Plasma glucose concentrations were measured by the glucose oxidase method (Glucose Analyzer II, Beckman Instruments, Inc., Fullerton, Calif.). […] FFA concentrations were determined by an enzyme assay in accordance with the manufacturer's specifications (Waco Pure Chemical Industries. Osaka. Japan). Plasma insulin concentrations (with rat and porcine insulin standards) were measured by radioimmunoassay (RIA). Plasma adiponectin concentrations were measured by RIA (Linco Inc., Austin, Tex., USA). Liver triglycerides were measured as described (Muse et al., 2004).
Calculations. Statistical analysis was done by unpaired Student's t test or analysis of variance as appropriate. Data are presented as means±SEM. All values were collapsed into a single value for each animal prior to the calculation of mean. The time period 180-240 min was averaged for the basal and the time period 300-360 min was averaged for the clamp conditions.

[5] = system: high fat-fed rats; test: Central glucose or lactate in regular chow vs 3-day high fat diet-fed animals: glucose production; type: in vivo, rat; details: central administration
Text: The latter is an excellent model for diet-induced insulin resistance.

[6] = system: high fat-fed rats; test: ICV glucose or lactate in high fat-fed rats: plasma triglycerides and VLDL secretion; type: in vivo, rat
Method: High fat feeding. Male Sprague-Dawley rats were fed a highly palatable high fat diet for three days. These rats developed hyperinsulinemia and hepatic insulin resistance (Morgan et al., 2004). […] In a separate set of studies, lipoprotein secretion studies were performed at the beginning of the ICV infusions.

[7] = system: conscious rats; test: ICV glucose or lactate infusion with pancreatic basal insulin clamp: plasma glucose and liver glucose production; type: in vivo, rat
Text: We hypothesize that the hypothalamic sensing of glucose-derived pyruvate is a novel regulator of endogenous glucose production (GP). […] We propose that an increase in neuronal pyruvate levels is a hypothalamic signal of nutrient availability.
Long chain fatty acids in the brain decrease glucose production (GP) by the liver via activation of hypothalamus ATP-sensitive (KATP) channels. Here we tested whether (A) direct administration of glucose in the third cerebral ventricle can alter glucose production by the liver, and (B) whether this effect requires its metabolism in the TCA cycle.

[8] = system: hepatic VLDL secretion; test: Lipoprotein (VLDL) secretion studies with tyloxapol; NMR particle size; type: in vivo, rat; details: increased central metabolism of lactate to pyruvate, rats (Example 3)
Method: Lipoproteins secretion and particles concentration and size measurements. Tyloxapol (600 mg/kg; ˜1 min) was intravenously injected to inhibit endogenous lipoprotein lipase. This high dose of tyloxapol ensured complete inhibition of triglyceride clearance during VLDL secretion studies. Plasma samples were taken every 30 min for triglycerides analysis and for lipoprotein profiling. Plasma VLDL particles concentration and size were determined by nuclear magnetic resonance spectroscopy (lipoprofile-II test) at Liposcience as previously described (Otvos et al., 1991; 1992). This NMR lipoprofile-II test is based on the assumption that each plasma lipoprotein particle of a particular size gives its own characteristic lipid NMR signal. The intensity of the signal is also in proportion to the concentration of the particle. The diameter range for large, medium and small VLDL is >60 nm, 35-60 nm, and 27-35 nm, respectively.
Selective hepatic branch vagotomy. The surgeries were performed as described (Lam et al., 2005c).
Treatment with SCD1 ASO. Five and two days before the lipoprotein secretion studies, rats received a single intra-peritoneal injection of either SCD1 or scrambled (SCR) ASO (100 mg/kg of body weight). […] In a separate set of studies, rats received intra-portal injection of either SCD1 or SCR ASO (40 mg/kg of body weight) (Gutierrez-Juarez et al., 2006) three days before the lipoprotein secretion studies.
Portal oleate infusion. Chronic portal catheter was implanted and 7 days were allowed for rat recovery. Oleic acid (45 mM; dissolved in 45% HBP) was infused at a rate of 40 μl/h for 2.5 h (1 h before the 90 min lipoprotein secretion studies). This dose enabled the reconstitution of hepatic oleyl-CoA levels back to normal during portal SCD1 ASO (FIG. 11c) or ICV glucose studies (FIG. 11d).

C[C@H](O)C(=O)O [lactate, L-lactate]
glucose infusion kinetics ([1]; intravenous infusion of lactate alone): did not affect glucose infusion kinetics | elevation of plasma lactate ([1]; intravenous infusion of lactate): ~3 fold | food intake overnight ([2]; central administration): inhibits food intake overnight | decrease in food intake ([2]; the day following ICV injection): ~40% | plasma TG levels ([3]; i.v. lactate 100 μmol•kg-1•min-1, i.v. saline 0.28±0.09): 0.11 ± 0.02 mM | rate of production of hepatic TG-enriched VLDL ([3]; i.v. lactate infusion, i.v. saline 0.059±0.003): 0.041 ± 0.002 mM/min | decrease in VLDL production ([3]; i.v. lactate vs i.v. saline): 31% | lowering of plasma TG levels ([3]; i.v. lactate vs i.v. saline): > 50% | VLDL secretion ([3]; physiological increase in plasma lactate): sufficient to inhibit VLDL secretion | plasma triglyceride ([3]; ~two-fold increase in circulating lactate, basal and clamp conditions): significant decrease in plasma triglyceride in both conditions | plasma free fatty acids levels ([4]; ICV infusion): did not affect plasma free fatty acids levels | plasma triglyceride levels ([4]; ICV infusion (glucose 2 mM, L-lactate 5 mM)): markedly decreased plasma triglycerides levels | suppression of plasma TG levels ([4]; increased central metabolism of lactate to pyruvate, rats (Example 3)): ~50% | glucose production ([5]; 3-day high fat diet-fed animals): entirely preserved; also recorded: lowered glucose production | glucose production ([5]; regular chow animals): lowered glucose production | rate of appearance of VLDL-triglycerides in plasma ([6]; HF rats, tyloxapol): decreased the rate of appearance of VLDL-triglycerides in plasma to levels similar to those of SC rats | circulating levels of triglycerides ([6]; high fat-fed rats): effectively lowered the circulating levels of triglycerides to levels similar to those of rats on a standard chow | circulating glucose levels ([7]; central (ICV) administration): sufficient to markedly diminish circulating glucose levels; also recorded: lowered circulating glucose levels | gluconeogenesis and glycogenolysis ([7]; central administration): inhibited gluconeogenesis and glycogenolysis | liver glucose production, G6Pase flux and mRNA ([7]; central administration): reduced liver glucose production, G6Pase flux and mRNA | plasma glucose concentrations ([7]; four hour ICV infusion 5 μl/h (glucose 2 mM, lactate 5 mM), control 150±4): 129 ± 3 mg/dL | exogenous glucose infusion rate required to maintain euglycemia ([7]; pancreatic basal insulin clamps, central administration): increased exogenous glucose infusion rate | GP (glucose production) ([7]; pancreatic clamps, plasma glucose and insulin at basal, ICV infusion, control 10.4±0.1 (glucose), 11.7±0.6 (lactate)): 6.5 ± 0.6 mg/kg/min | suppression of hepatic TG-enriched VLDL production [8]: ~40%
